Source: BindingDB's records for patent US11780845 (Relay Therapeutics, 2023)

Target: Fibroblast growth factor receptor 2 (Homo sapiens, UniProt P21802)
Experiment: FGFR2 Biochemical Caliper Assay
Protocol: Compounds of the present invention were also tested in a FGFR2 Biochemical Caliper Assay. Compounds were prepared in 10 mM DMSO solution and serially diluted into 11 concentrations by 3-fold dilution. […] 5 uL of ATP solution (100 uM) was added to start the reaction and the plate was incubated for 90 minutes, then 70 uL of stopping buffer (0.5M EDTA) was added to terminate the reaction. Each well was analyzed using EZ reader.

Fibroblast growth factor receptor 2, sequence (P21802 whole entry): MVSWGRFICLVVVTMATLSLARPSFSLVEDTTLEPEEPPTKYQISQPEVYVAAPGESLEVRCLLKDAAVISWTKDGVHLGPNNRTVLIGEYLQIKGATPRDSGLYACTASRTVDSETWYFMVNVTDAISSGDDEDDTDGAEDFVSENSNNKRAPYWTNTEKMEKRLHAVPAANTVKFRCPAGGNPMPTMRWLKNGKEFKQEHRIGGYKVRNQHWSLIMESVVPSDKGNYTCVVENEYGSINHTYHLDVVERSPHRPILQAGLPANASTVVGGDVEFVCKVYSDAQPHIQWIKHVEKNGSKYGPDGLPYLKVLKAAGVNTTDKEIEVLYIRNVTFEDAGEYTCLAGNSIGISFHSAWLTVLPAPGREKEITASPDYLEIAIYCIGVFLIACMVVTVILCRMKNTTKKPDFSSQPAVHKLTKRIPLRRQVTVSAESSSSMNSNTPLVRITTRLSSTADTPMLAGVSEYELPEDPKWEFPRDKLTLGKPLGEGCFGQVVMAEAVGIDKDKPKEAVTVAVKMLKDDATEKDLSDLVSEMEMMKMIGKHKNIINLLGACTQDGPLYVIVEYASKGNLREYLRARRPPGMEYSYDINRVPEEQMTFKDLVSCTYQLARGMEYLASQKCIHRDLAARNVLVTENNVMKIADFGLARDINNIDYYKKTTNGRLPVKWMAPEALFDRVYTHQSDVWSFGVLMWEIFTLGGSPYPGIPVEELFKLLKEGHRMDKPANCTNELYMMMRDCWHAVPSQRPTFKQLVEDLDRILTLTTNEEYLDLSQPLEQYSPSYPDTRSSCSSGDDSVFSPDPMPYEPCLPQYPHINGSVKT

| IC50 [nM] | SMILES |
| --- | --- |
| < 100 | CC#CC(=O)Nc1ccc(-c2c(-c3ccc(Oc4cccc(C)n4)c(OC)c3)c3c(N)ncnc3n2C)cc1 |
| < 100 | C=CC(=O)Nc1ccc(-c2c(-c3ccc(Oc4ccccc4)c(OC)c3)c3c(N)ncnc3n2C)cc1 [US11780845, Example 12] |
| < 100 | CC#CC(=O)N(C)c1ccc(-c2c(-c3ccc(Oc4cccc(C)n4)c(OC)c3)c3c(N)ncnc3n2C)cc1 [US11780845, Example 26] |
| < 100 | C=CC(=O)Nc1ccc(-c2c(-c3ccc(Oc4cccc(C)c4)c(OC)c3)c3c(N)ncnc3n2C)cc1 [US11780845, Example 27] |
